{"source": "paper PMC7993727", "about": "“Discovery of a novel AR/HDAC6 dual inhibitor for prostate cancer treatment” (Aging (Albany NY), 2021)", "key": {"HDAC2": {"target": "T1, HDAC2 (Homo sapiens, UniProt Q92769)", "T1 construct": "purchased BPS Bioscience", "T1 sequence (Q92769 whole entry)": "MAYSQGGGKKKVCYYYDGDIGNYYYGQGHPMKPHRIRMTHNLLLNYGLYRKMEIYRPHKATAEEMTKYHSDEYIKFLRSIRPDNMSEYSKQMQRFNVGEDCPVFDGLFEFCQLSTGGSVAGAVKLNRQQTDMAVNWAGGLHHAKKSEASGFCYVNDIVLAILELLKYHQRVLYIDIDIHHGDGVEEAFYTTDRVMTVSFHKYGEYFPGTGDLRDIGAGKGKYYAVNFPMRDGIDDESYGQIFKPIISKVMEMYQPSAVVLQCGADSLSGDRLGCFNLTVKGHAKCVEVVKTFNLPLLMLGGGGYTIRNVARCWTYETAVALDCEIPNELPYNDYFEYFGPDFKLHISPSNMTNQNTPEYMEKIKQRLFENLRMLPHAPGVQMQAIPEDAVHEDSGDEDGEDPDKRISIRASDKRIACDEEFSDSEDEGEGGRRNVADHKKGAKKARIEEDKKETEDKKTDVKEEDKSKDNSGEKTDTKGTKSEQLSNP", "assay": "biochemical", "experimental": "Commercial fluorescent assay kits were used to measure the activities of HDAC (BPS Bioscience). Briefly, the tested compounds were diluted in DMSO into a 96-well plate, and then assay buffer, HDAC, and substrate were added. The plate was incubated at 37° C for 30 minutes for enzymatic reactions, and the developer was added. After 10 minutes of incubation, the generated fluorescence was measured at an excitation of 380 nm and an emission of 460 nm."}, "AR-LBD": {"tested_on": "AR-LBD", "assay": "AR competitive binding, fluorescence polarization", "experimental": "To evaluate the AR inhibition activities of Zeta55, an AR luciferase activity assay was performed (Table 1 and Supplementary Figure 1). […]. To evaluate the HDAC inhibition activities of Zeta55, fluorescent-based HDAC assays were performed (Table 1 and Supplementary Figure 3). […]. Both compounds seem ineffective against HDAC4.\nSupplementary Figure 1. […]\npolarization assay. Test compounds were incubated with recombinant AR-LBD (GST) and the fluorescence polarization (mP) was measured\nat an excitation wavelength of 485 nm and emission wavelength of 535 nm. […]"}, "HDAC6": {"target": "T2, HDAC6 (Homo sapiens, UniProt Q9UBN7)", "T2 sequence (Q9UBN7 1-1215)": "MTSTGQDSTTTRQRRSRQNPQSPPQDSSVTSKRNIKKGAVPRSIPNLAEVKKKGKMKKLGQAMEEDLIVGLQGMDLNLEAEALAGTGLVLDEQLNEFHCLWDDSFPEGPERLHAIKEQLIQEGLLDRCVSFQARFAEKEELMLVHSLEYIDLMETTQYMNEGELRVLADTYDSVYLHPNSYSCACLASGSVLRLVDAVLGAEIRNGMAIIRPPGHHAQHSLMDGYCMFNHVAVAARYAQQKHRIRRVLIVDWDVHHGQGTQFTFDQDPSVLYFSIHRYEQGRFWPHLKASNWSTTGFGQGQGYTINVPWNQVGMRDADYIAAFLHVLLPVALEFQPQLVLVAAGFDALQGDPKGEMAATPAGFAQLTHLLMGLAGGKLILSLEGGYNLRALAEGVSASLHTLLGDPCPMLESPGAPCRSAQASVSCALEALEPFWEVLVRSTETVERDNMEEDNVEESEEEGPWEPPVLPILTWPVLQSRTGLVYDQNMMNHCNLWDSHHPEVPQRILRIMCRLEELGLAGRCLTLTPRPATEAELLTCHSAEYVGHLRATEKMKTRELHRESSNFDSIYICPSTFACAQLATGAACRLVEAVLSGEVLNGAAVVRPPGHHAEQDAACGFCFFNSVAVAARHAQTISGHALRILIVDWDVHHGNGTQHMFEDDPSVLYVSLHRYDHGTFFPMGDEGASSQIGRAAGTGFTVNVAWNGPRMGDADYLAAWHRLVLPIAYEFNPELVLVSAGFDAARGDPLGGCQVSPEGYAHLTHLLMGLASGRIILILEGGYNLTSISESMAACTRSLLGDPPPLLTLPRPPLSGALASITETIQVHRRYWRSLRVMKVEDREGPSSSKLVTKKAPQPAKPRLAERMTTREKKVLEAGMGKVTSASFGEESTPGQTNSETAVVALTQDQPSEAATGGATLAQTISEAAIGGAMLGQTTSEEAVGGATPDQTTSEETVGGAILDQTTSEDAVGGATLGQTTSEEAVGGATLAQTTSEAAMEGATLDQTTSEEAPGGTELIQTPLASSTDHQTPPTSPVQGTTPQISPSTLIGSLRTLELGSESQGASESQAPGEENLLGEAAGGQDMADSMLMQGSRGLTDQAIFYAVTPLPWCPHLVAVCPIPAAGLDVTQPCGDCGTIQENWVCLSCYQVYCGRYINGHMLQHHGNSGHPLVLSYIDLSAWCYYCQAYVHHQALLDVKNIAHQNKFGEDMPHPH", "assay": "acetylation of α-tubulin (HDAC6 substrate) in VCaP cells, Western blot", "format": "cell-based", "conditions": "24 hours", "experimental": "RNA expression level was analyzed by qRT-PCR and protein expression level was analyzed by Western blot. […] (I) Representative immunofluorescence microscopic images of VCaP cells for checking the subcellular localization of AR.\nTo evaluate the HDAC6 inhibition ability of Zeta55 in VCaP cells, the acetylation status of α-tubulin protein (a HDAC6 substrate) was assessed using western blot. […] We assessed the protein level of AR in VCaP cells.\nThe whole-cell extracts were prepared in lysis buffer with a protease inhibitor cocktail (Bimake), while the xenograft tissue extracts were prepared in 0.5% Nonidet P 40 Substitute solution (Biosharp) with cocktail protease inhibitor (Bimake). Each sample containing 30 μg of total protein was loaded onto 10% SDS-PAGE and electrotransferred onto polyvinylidene fluoride membranes. The membranes were blocked with 5% skimmed milk in PBST at room temperature for 2 hours and incubated with primary antibodies at 4° C overnight. After the membranes were washed with PBST three times, they were incubated with horseradish peroxidase-conjugated anti-rabbit or anti-mouse secondary antibody at room temperature for 1 hour. Chemiluminescent detection was performed with WesternBright ECL (Advansta). The immunoblots were visualized using the FluorChem FC3 system (ProteinSimple)."}}, "data": [{"smiles": "N#Cc1ccc(N2C(=O)C3(CCC3)N(c3ccc(C(=O)NO)c(F)c3)C2=S)cc1C(F)(F)F", "note": "[Zeta55]", "values": [{"measurement": "IC50", "setting": "HDAC2", "result": "> 20", "unit": "µM"}, {"measurement": "AR binding affinity relative to MDV3100", "setting": "AR-LBD", "result": 60, "unit": "%"}, {"measurement": "α-tubulin acetylation", "setting": "HDAC6", "result": "enhanced α-tubulin acetylation in a dose-dependent manner"}]}]}
